Reference: article PMC4685012 (Bioorganic & medicinal chemistry, 2015)

Test system: Vero cells
Assay: Cell viability
Type: cell-based, monkey
Details: Primates, 72 h, read-out: Anti-proliferative activity IC50, Vero

With O=C(CCCCCCC(=O)Nc1ccccc1)NO [SAHA, suberoylanilide hydroxamic acid, reference compound] the IC50 was 1030 ± 90 nM.
